Experimental data reported in patent US20220226340A1, “CASEIN KINASE 1 INHIBITORS FOR USE IN THE TREATMENT OF DISEASES RELATED TO DUX4 EXPRESSION SUCH AS MUSCULAR DYSTROPHY AND CANCER” (Facio Intellectual Property B.V., priority 2019, published 2022).
Like-named read-outs stand apart in the source and are kept apart here.

Experiments:
[1] = molecular target: CK1α (Homo sapiens, UniProt P48729); test: CK1α inhibition IC50; format: biochemical
[2] = molecular target: p38α (Homo sapiens, UniProt Q16539); test: p38α inhibition IC50; format: biochemical
p38α, sequence (Q16539 whole entry): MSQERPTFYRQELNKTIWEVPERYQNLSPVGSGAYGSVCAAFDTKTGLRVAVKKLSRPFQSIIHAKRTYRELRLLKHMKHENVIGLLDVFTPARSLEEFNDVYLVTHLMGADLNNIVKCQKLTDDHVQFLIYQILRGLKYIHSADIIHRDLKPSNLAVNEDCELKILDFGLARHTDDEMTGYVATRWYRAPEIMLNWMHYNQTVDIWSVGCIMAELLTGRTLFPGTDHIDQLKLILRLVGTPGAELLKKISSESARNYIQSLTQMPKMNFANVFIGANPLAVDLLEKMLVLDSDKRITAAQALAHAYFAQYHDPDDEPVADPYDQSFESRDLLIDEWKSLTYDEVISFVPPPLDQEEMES

[3] = tested on: DUX4; test: high-content immunocytochemistry assay of endogenous DUX4 expression in differentiating primary FSHD myotubes; format: cell-based, human; details: for EC50: Homo sapiens, Myotube
Source text: (§1) A quantitative assay readout was developed based on script-based image analysis. […] To analyse the images, an automated script was developed, enabling the detection of nuclei, myotube borders and DUX4 signals, with the script also detecting artefacts to reduce false positive signals. The script enabled multiple validated readouts including the number of DUX4 positive nuclei and nuclei clusters, the fusion index, myotube area, myotube width and myotube skeleton length (see FIG. 2). Additionally, the total nuclei count was included as a measure of cell loss or compound toxicity.
A compound library containing approximately 5000 annotated compounds was screened in the high-content assay. For this purpose, primary myoblasts were seeded in 384 well plates after which the growth medium was replaced with differentiation medium. After 3 days of differentiation, cells were treated with library compounds (in duplicate on different screening plates) for 15 h, after which they were fixed and stained with antibodies against DUX4, antibodies against myosin heavy chain (MHC), and with DAPI (4′,6-diamidino-2-phenylindole). Script-based analysis provided readouts for DUX4 expression (count of DUX4-positive nuclei or DUX4 intensity) and for potential toxicity (fusion index and nuclei count).
Compounds were incubated with primary FSHD cells for 15 hours, as indicated by the arrow in FIG. 4A.
(§2) Compounds are administered either 15 h before fixation, resembling the original screening protocol, or 72 h before fixation (grey arrow). In the latter case, compounds are present during the whole differentiation process.

[4] = molecular target: CK1δ (Homo sapiens, UniProt P48730); test: CK1δ inhibition IC50; format: biochemical
CK1δ, sequence (P48730 whole entry, the tested form may be a part): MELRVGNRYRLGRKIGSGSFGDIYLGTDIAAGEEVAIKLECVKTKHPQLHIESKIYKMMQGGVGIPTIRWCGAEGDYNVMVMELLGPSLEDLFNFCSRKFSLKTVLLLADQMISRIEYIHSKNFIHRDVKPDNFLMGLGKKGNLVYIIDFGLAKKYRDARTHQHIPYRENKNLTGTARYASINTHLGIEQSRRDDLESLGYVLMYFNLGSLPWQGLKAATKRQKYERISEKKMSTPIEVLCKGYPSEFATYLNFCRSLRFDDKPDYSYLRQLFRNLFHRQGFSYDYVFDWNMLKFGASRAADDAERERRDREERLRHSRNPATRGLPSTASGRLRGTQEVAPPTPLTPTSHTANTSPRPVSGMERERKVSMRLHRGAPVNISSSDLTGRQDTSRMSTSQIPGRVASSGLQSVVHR

[5] = tested on: primary FSHD cells; test: fusion index (myotube fusion) readout of the high-content assay in primary FSHD cells; format: cell-based, human; details: 72 h treatment, compound present during whole differentiation
Source text: as §1, §2

[6] = molecular target: CK1ε (Homo sapiens, UniProt P49674); test: CK1ε inhibition IC50; format: biochemical
CK1ε, sequence (P49674 whole entry): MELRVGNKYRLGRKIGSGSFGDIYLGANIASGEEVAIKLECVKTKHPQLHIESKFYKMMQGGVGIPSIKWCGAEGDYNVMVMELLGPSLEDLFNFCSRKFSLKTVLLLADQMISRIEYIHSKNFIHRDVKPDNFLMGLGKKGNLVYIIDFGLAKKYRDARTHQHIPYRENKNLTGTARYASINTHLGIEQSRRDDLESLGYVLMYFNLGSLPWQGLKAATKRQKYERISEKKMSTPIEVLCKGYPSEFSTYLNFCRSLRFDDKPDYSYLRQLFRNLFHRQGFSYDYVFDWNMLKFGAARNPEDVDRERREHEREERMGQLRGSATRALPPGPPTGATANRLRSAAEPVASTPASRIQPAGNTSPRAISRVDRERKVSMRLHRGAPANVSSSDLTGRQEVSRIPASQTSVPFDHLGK

[7] = Table 7, p38 compounds, read-out: IC50 CK1a
[8] = 72 h, Table 4, 72 h treatment protocol, read-out: DUX4 EC50
[9] = 72 h, Table 6, 72 h treatment protocol, read-out: DUX4 EC50

CK1α, sequence (P48729 whole entry): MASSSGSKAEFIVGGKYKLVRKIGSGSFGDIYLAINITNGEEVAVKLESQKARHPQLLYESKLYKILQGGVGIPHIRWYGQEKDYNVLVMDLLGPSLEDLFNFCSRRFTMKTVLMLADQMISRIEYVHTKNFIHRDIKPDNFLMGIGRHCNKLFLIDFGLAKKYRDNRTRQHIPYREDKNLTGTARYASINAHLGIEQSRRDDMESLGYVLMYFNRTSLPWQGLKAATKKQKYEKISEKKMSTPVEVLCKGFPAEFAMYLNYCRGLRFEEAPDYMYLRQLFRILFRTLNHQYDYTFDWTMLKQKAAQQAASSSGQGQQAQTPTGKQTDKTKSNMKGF

IC50 ([1]; Table 4, read-out: CK1 a IC50) [nM] | IC50 ([1]; Table 6, read-out: IC50 CK1α) [nM] | IC50 ([2]; Table 4, read-out: p38a IC50) [nM] | IC50 ([2]; Table 6, read-out: IC50 p38α) [nM] | EC50 [3, 8] [nM] | EC50 [3, 9] [nM] | IC50 ([4]; Table 4, read-out: CK1 d IC50) [nM] | IC50 ([4]; Table 6, read-out: IC50 CK1δ) [nM] | SMILES | also measured
– | – | – | – | – | – | – | – | CNC(=O)c1ccc(C)c(-n2c(C)cc(OCc3ccc(F)cc3F)c(Br)c2=O)c1 [PH797804, reference compound] | IC50 [1, 7]: > 10000 nM
1830 | 1830 | 15.9 | 16 | 780 | 780 | 115 | 115 | OCCC#Cc1nc(-c2ccc(F)cc2)c(-c2ccncc2)n1CCCc1ccccc1 [RWJ 67657, reference compound] | –
– | – | – | – | – | – | – | – | CC(C)(C)Cn1c(N)nc2ccc(-c3[nH]c(C(C)(C)C)nc3-c3ccc(F)cc3)nc21 [LY2228820, reference compound] | IC50 [1, 7]: > 10000 nM; IC50 ([2]; Table 7, p38 compounds, read-out: IC50 p38): 14 nM; effect on fusion index / myotube fusion [5]: inhibited the fusion index; IC50 ([4]; Table 7, p38 compounds, read-out: IC50 CK1d): 2780 nM
– | – | 74.3 | – | 620 | 620 | 19.8 | – | Nc1nccc(-c2c(-c3ccc(F)cc3)ncn2C2CCN(Cc3ccon3)CC2)n1 [PF-5006739, reference compound] | IC50 ([2]; Table 3, read-out: p38a IC50): 74.3 nM; IC50 ([6]; Table 3, read-out: CK1 e IC50): 26.8 nM; IC50 ([6]; Table 4, read-out: CK1 e IC50): 26.8 nM; IC50 ([4]; Table 3, read-out: CK1 d IC50): 19.8 nM
270 | 270 | 42 | 42 | 390 | 390 | 45 | 45 | Fc1ccc(-c2nc3ccc(N4CCC(N5CCCC5)CC4)nn3c2-c2ccncc2)cc1 [Nr. 14] | –
– | – | – | – | – | – | – | – | Cc1c(F)cc(C(=O)NC2CC2)cc1-c1ccc(C(=O)NCC(C)(C)C)cn1 [Losmapimod, reference compound] | IC50 [1, 7]: > 10000 nM; effect on DUX4 ([3]; added during the last 15 h of differentiation): did not show any effect
194 | 194 | 411 | 411 | 1100 | 1100 | 57.7 | 58 | Fc1ccc(-c2nc3ccc(N4CCNCC4)nn3c2-c2ccnnc2)cc1 [Nr. 22] | –
4020 | 4020 | 449 | 449 | 4900 | 4900 | 80.7 | 81 | Cc1cc(-c2cn(C)nc2-c2ccc(F)cc2)ccn1 [Nr. 19] | –
– | – | – | – | 310 | 310 | – | – | c1ccc(-c2nc3ccc(N4CCC(N5CCCC5)CC4)nn3c2-c2ccncc2)cc1 [Nr. 13] | –
– | – | – | – | – | – | – | – | Fc1cccc(-n2cnc3c(NCc4nc5ccc(F)c(F)c5[nH]4)nc(N4CCOCC4)nc32)c1 [SR-3029, reference compound] | IC50 ([2]; Table 3, read-out: p38a IC50): > 1000 nM; EC50 ([3]; 15 h, read-out: DUX4 EC50): 50 nM; EC50 ([3]; 15 h, read-out: EC50 for DUX4 repression): 50 to 120 nM
> 10000 | > 10000 | 1250 | 1250 | 2400 | 2400 | 2090 | 2090 | Fc1ccc(-c2nc3ccc(N4CCOCC4)nn3c2-c2ccncc2)cc1 [Nr. 23] | –
186 | 186 | 50.3 | 50 | 2200 | 2200 | 55.5 | 55 | Fc1ccc(-c2nn(CC(F)(F)F)cc2-c2ccnc3[nH]ccc23)cc1 [Nr. 20] | –
– | – | – | – | 5000 | 5000 | – | 42 | COCCN1Cc2nccc(-c3cn(C)nc3-c3ccc(F)cc3)c2C1=O [Nr. 7] | IC50 ([6]; Table 6, read-out: IC50 CK1ε): 92 nM
61.4 | 61 | 28.9 | 29 | 100 | 100 | 58.5 | 58 | Fc1ccc(-c2nc3ccc(N4CCNC5(CC5)C4)nn3c2-c2ccncc2)cc1 [Nr. 21] | –
636 | 636 | 312 | 312 | 8200 | 8200 | 46.5 | 46 | Cn1cc(-c2ccnc(N)n2)c(-c2ccc(F)cc2)n1 [Nr. 18] | –
– | – | – | – | 250 | 250 | – | – | CN1CCN(c2ccc3nc(-c4ccccc4)c(-c4ccncc4)n3n2)CC1 [Nr. 11] | –
196 | 196 | – | – | 1200 | 1200 | 16.9 | 17 | Cn1cc(-c2ccnc3[nH]ccc23)c(-c2ccc(F)cc2)n1 [Nr. 16] | IC50 ([2]; IC50 p38α, Table 6): 18 nM; IC50 ([2]; p38a IC50, Table 4): 17.9 nM
